# From a melting point compilation (Tetko et al.; mined from patent text by program, amines drawn as free bases though some values may be those of a salt)
row,SMILES,melting point
1,COC(=O)C1(NC(=O)Cc2cc(-c3ccc(Cl)cc3)ccc2C)CCCC(C(F)(F)F)C1 (stereo not drawn),149 °C
2,CC(=O)C1CCC2C3CCC4=CC(=O)C=CC4(C)C3CCC12CO[N+](=O)[O-] (stereo not drawn),148 to 150 °C
3,CCCc1c(C(=O)C(C)C)c2ccc(C(=O)NO)cc2n1Cc1ccccc1Cl,185 to 186 °C
4,COC(=O)c1cscc1Nc1ccc(F)cc1[N+](=O)[O-],164 °C
5,C=CCNc1nc(NCC=C(C)C)c2scc(C)c2n1,114 to 115 °C
6,OCc1cc(Cl)cc(CO)c1O,161 to 163 °C
7,CCOC(=O)c1cc2c3c(ccc2[nH]1)OC[C@H](CO)O3,152 to 153 °C
8,CN(CC=C(F)C(F)(F)C(F)(F)F)CCCCCC1Cc2cc(O)ccc2C2C(F)CC3(C)C(O)CCC3C12 (stereo not drawn),122 °C
9,NC1C=CC=CN1NS(=O)n1ccnc1 (stereo not drawn),174 to 175 °C
10,Cc1ccc2c(c1C)OC(C)(C)C2=O,79 to 81 °C
11,CN(C)Cc1ccc(CSCCNc2ncc([N+](=O)[O-])c(=O)[nH]2)o1,201 to 204 °C
12,CCOC(=O)C(N)=NOC(=O)c1cnccc1C(F)(F)F,172 to 174 °C
13,CCC1(CCCCCl)C(=O)Nc2ccc(C)cc21 (stereo not drawn),79 to 80 °C
14,CC(C)(C)OC(=O)N1CCC(COc2ccc(C=O)cc2)CC1,116 to 117 °C
15,CC(=O)c1c(C)cc(NC(C)(C)C)nc1NC(C)(C)C,127 to 128 °C
16,CCCCCCNc1ccc(OC2CCN(C(=O)OC(C)(C)C)CC2)cc1,46 to 47 °C
17,N#CC1(c2ccccc2)CCN(C(=O)CC(c2ccccc2)(c2ccccc2)c2ccccc2)CC1,188 to 190 °C
18,COc1cccc(S(=O)(=O)NC(C)(C)C)c1,100 °C
19,O=c1[nH]cc(C=CBr)c(=O)[nH]1,> 320 °C
20,Cc1cc(-n2c(C)ccc2C)c(C)cc1N=CN(C)C,90 to 91 °C
21,Cn1c(=O)[nH]c(=O)c2c1ncn2CCCCCCO,219 to 220 °C

row,SMILES,melting point
1,CC1CN(c2ccc(Cl)cn2)N=C1N (stereo not drawn),159 to 160 °C
2,COC(=O)c1c(Br)c(Br)c(C(=O)OC)c(Br)c1Br,207 to 210 °C
3,COC(=O)C=C1C=C(C(C)(C)C)C(=O)C(C(C)(C)C)=C1,87 to 89 °C
4,CCCCNc1nc(N)nc2c1ncn2C1CC(N=[N+]=[N-])C(CO)O1 (stereo not drawn),44 to 47 °C
5,c1ccc(-c2nn3c(c2-c2nc4ncccc4o2)CCC3)nc1,182 to 184 °C
6,O=[N+]([O-])c1ccc(SCCc2c[nH]cn2)nc1,147 to 148 °C
7,CC(C)(C)c1cc(-c2cc(C(C)(C)C)cc(C(C)(C)C)c2O)c(O)c(C(C)(C)C)c1,190 to 195 °C
8,CCC(CCSc1cc(OC)c(O)c(OC)c1)(c1cccs1)N(C)C (stereo not drawn),78 to 80 °C
9,COc1nc(Br)c(C)nc1NS(=O)(=O)c1cccc(Cl)c1Cl,146 to 148 °C
10,CCNc1nc(C)c(C(=O)c2ccc(Cl)c([N+](=O)[O-])c2)s1,195 °C
11,CC(=O)c1ccc(S(=O)(=O)NCCN2CCOCC2)cc1,128 to 129 °C
12,O=C(O)[C@@H]1CCCN1C(=O)C1CCCC1S (stereo partly drawn),97 °C
13,CCC1(CC)CN(c2ncc(C(=O)N(C)c3cccc(C(F)(F)F)c3)c(N)n2)C(=O)N1,185 to 187 °C
14,C=CCSCC(O)(Cn1cncn1)c1ccc(Cl)cc1Cl (stereo not drawn),92 to 94 °C
15,COc1cccc(Cc2nnc(SC)[nH]c2=O)c1,185 to 186 °C
16,CCc1c(-c2ccc(OC)cc2)c2c3c(c4cc(OC)cc1n42)C(=O)OC3=O,249 to 251 °C
17,Cc1nn(C)c2ncc3c(c12)CC(C)CC3 (stereo not drawn),121 to 123 °C
18,CCCc1c(OCCCCC(=O)N(C)C)ccc(C(C)=O)c1O,95 to 97 °C
19,CCOc1ccc(S(=O)(=O)N2CCN(CC)CC2)cc1C#N,86 to 88 °C
20,CN(C)CCCNc1nc2cc(Cl)c(Cl)cc2nc1-c1ccccn1,59 to 61 °C
21,Cc1ccc(C2C(=O)CC(C)(C)CC2=O)cc1,200 to 202 °C

row,SMILES,melting point
1,CC(C)(C)c1cc(=S)cc(C(C)(C)C)o1,108 °C
2,Cc1cc2c(c3ccc(=O)[nH]c13)OC(CSCCN)C2 (stereo not drawn),182 to 184 °C
3,CN(C)Cc1nnc2n1-c1ccc(Cl)cc1C(c1ccccc1Cl)=NC2,199 to 201 °C
4,CCc1nc2c(C)cc(C)nc2n1Cc1ccc(-c2ccccc2-c2c(N)c(=O)c2=O)cc1,217 °C
5,CN(C)Cc1ccc(CSCCNC2=NS(=O)(=O)N=C2N(C)C)o1,139 to 142 °C
6,O=C(Nc1ccc(F)c(NC(=S)Nc2cc(Cl)cc(Cl)c2)c1)c1ccc(F)c(F)c1,197 °C
7,Cc1nn(C)c(O)c1C(=O)c1c(Cl)cccc1Cl,250 °C
8,CCN1CCCC1CNC(=O)CCCOc1ccc2nc3[nH]c(=O)[nH]c3cc2c1 (stereo not drawn),233 to 237 °C
9,CCCOc1cc2c(cc1C(C)c1ccc(OC)cc1)OCO2 (stereo not drawn),84 °C
10,Cc1nc(Cl)c2c(n1)c(C)nn2C,91 to 93 °C
11,CCN(CC)C(=O)c1cc(-c2ccc(Cl)cc2)c2ccsc2c1,135 °C
12,CC(=O)OC1CSC(Oc2ccnc(-c3ccncc3)c2)C(OC(C)=O)C1OC(C)=O (stereo not drawn),185 °C
13,CCNC(=O)ON(C(C)=O)C(=O)NCC,84 to 86 °C
14,O=C(O)c1cc(Cl)c(F)c(F)c1F,123 to 124 °C
15,COC(=O)C1=Cc2cc(Br)ccc2CCC1,83 to 84 °C
16,CCNC(=N)Nc1nc2ccc(OC(F)(F)F)cc2s1,127 to 129 °C
17,CC(=O)NNc1nc(C(F)(F)F)nc(-c2ccc(S(C)(=O)=O)cc2)c1-c1ccccc1F,281 to 283 °C
18,COC12CC(C)(C)C(O1)C(O)C=C2C (stereo not drawn),52 to 54 °C
19,Cc1c(NC(=O)c2ccc(-c3ccc(Cl)s3)cc2)ccc2cc(CN3CCCCCC3)cnc12,186 to 187 °C
20,CCN(c1nc(C)cc(C)n1)c1ccc(C(C)C)cc1SC,64 to 66 °C
21,CN1C(=O)C(c2ccc(OC(F)F)cc2)(c2cccc(C#CCCO)c2)N=C1N (stereo not drawn),90 to 93 °C

# Second part, the compound after the results:
row,melting point,SMILES
1,178 to 183 °C,CC(C)CC(NC(=O)C(C)NC(=O)C(CC(=O)N1CCOCC1)Cc1cccc2ccccc12)C(O)C(=O)OC(C)C (mixture of isomers)
2,> 250 °C,O=C(O)CCCc1cc2cc(Cl)ccc2n1S(=O)(=O)c1ccc2c(c1)CNCC2
3,149 to 151 °C,Nc1nc(C[C@H](NC(=O)[C@H](Cc2ccccc2)NS(=O)(=O)N2CCOCC2)C(=O)O)cs1
4,78 to 79 °C,CC(C)C[C@@H](COCC(N)=O)NC(=O)OCc1ccccc1
5,97 to 99 °C,C=CCC(C(=O)NC)c1ccccc1 (stereo not drawn)
6,167 to 170 °C,CN(C)c1ccccc1CSc1nc2ccccc2[nH]1
7,149 °C,COC(=O)c1cc(C)c(-c2cccc(O)c2C)c(C)c1
8,200 °C,CCOc1nc(-c2ccc(NC(=O)NCc3cccnc3)cc2)ccc1C(=O)NC
9,133 to 135 °C,CC(C)(C)OC(=O)N1CCN2C(=O)OC(c3ccccc3)C2C1 (stereo not drawn)
10,122 to 123 °C,O=c1n(CCCCN2CCN(c3cccc(Cl)c3)CC2)nc2ccccn12
11,200 to 213 °C,O=C(Nc1cc(F)cc2c(Cl)ccnc12)c1c(Cl)cccc1Cl
12,249 to 252 °C,Oc1cc2c3ccc(O)c(O)c3n(Cc3ccc(Br)cc3)c2cc1O
13,92 to 93 °C,CCCCCCCNC(=O)N(C)c1cccc(-c2ccc(CCC(=O)O)c(F)c2)c1
14,229 °C,CCOC(=O)c1ccc(COCc2csc3nc(C(=O)NCc4ccccc4)[nH]c(=O)c23)cc1
15,160 to 162 °C,O=C(c1ccccc1)c1cnn2c(-c3cccc(N4CCCCC4=O)c3)ccnc12
16,136 to 137 °C,CN(c1ccccc1)c1nc(Cl)c([N+](=O)[O-])s1
17,190 to 192 °C,CSc1[nH]cc(Cc2ccccc2)c1[N+](=O)[O-]
18,169 to 172 °C,O=C(O)c1cc(NC(=O)C(CS)Cc2ccccc2)c[nH]1 (stereo not drawn)
19,153 °C,O=C1Nc2cccnc2N(CC#CCN2CCCC2)c2ccccc21
20,88 to 90 °C,C=C(C)C(=O)Oc1ccccc1NS(C)(=O)=O

row,melting point,SMILES
1,90 to 92 °C,CC(C)(C)c1cc(C(=O)ON(Cc2ccccc2)Cc2ccccc2)cc(C(C)(C)C)c1O
2,138 °C,COC(=O)Cc1cc(NC(=O)OC(C)(C)C)c(NC(=O)CC(=O)c2cccc(C#N)c2)cc1C#Cc1ccccc1
3,153 to 154 °C,Cc1cc(-c2cccc(C(F)(F)F)c2)n2ncc(C(=O)c3ccccc3)c2n1
4,123 to 124 °C,CCC(O)(c1ccccc1)c1cc(OC)c(OC)c(OC)c1 (stereo not drawn)
5,79 to 84 °C,CCOC(=O)[C@H](CCSCC)NC(=O)C(CSC(C)=O)Cc1ccccc1 (stereo partly drawn)
6,252 to 253 °C,CCOc1ccc(S(=O)(=O)N(CC(=O)NN=C2C(=O)Nc3ccc([N+](=O)[O-])cc32)c2ccccc2)cc1
7,88 to 90 °C,CC(C)Oc1cc(CCCOc2ncccc2CC(=O)O)n(Cc2ccc(Cl)cc2Cl)n1
8,160 °C,COC(=O)c1ccc2c(c1)S(=O)(=O)c1ccccc1O2
9,54 to 55 °C,CC(C)[C@H]1C(=O)OCN1C(=O)OCc1ccccc1
10,156 to 158 °C,O=C(O)CCOc1cccc2c1CCc1sc(SC(c3ccccc3)c3ccccc3)nc1-2
11,145 to 149 °C,CC(C(=O)O)c1ccc2noc(-c3ccccc3)c2c1 (stereo not drawn)
12,112 to 113 °C,COC(=O)c1cccc(-c2cccc(Oc3ccc(Cl)cc3Cl)n2)c1
13,96 to 98 °C,CCCN1c2ccccc2N(C)C(=O)c2cccnc21
14,152 to 154 °C,COc1cccc(C(=O)Nc2ccc(C(C)=O)cc2)c1
15,119 °C,COC(=O)CCc1cc2nc(C(F)(F)F)ccc2n1S(=O)(=O)c1ccccc1
16,114 °C,CS(=O)(=O)Nc1ccc(C(=O)N[C@@H](Cc2ccc(-c3ccccc3C(F)(F)F)cc2)C(=O)O)c(Cl)c1
17,78 °C,Cn1cc(C2CCN(CCn3cnc4ccccc4c3=O)CC2)c2ccccc21
18,223 to 225 °C,C[C@]12CCC(=O)N[C@@H]1CCc1cc(Sc3ccccn3)ccc12
19,132 to 133 °C,Cc1cccc(Cn2cc(-c3cn(C4CC(O)C(CO)O4)c(=O)[nH]c3=O)nn2)c1 (stereo not drawn)
20,136 °C,CCOC(=O)C1=C(C)NC(N=CN(C)C)=C(C(=O)OCC)C1c1cccc(OC)c1 (stereo not drawn)
